In paper PMC10134988, “An Arylbenzofuran, Stilbene Dimers, and Prenylated Diels–Alder Adducts as Potent Diabetic Inhibitors from Morus bombycis Leaves” (Antioxidants, 2023):
Where two headings read alike, the source gives them in different places.

How the values were obtained:
BSA-AGEs formation = experiment: Inhibition of BSA-AGEs formation; type: biochemical; conditions: mean ± SD, triplicate
Protocol: (§1) The inhibitory activity of HRAR was examined according to previous literature with modifications. First, 150 µL of 100 mM sodium phosphate buffer (pH 6.2), 20 µL of 0.3 mM NADPH as the co-enzyme, 5 µL of the test samples (50, 10, and 2 mg/mL or 100% DMSO), and 20 µL of 10 mM DL-glyceraldehyde as the substrate were added to each of the 96 wells (final volume 200 µL). Quercetin was used as a positive control. The inhibitory activity of AGEs formation was examined according to the modified method. Aminoguanidine hydrochloride was used as a positive control for the AGEs formation inhibition assay.

HAS-AGEs formation = experiment: Inhibition of HSA-AGEs formation; type: biochemical; conditions: mean ± SD, triplicate
Protocol: as §1

α-glucosidase [1] = experiment: α-Glucosidase inhibitory activity; type: biochemical, Saccharomyces cerevisiae; conditions: isolated compounds; mean ± SD, triplicate
Excerpt: (§2) Protein tyrosine phosphatase 1B (PTP1B) was purchased from ENZO (Farmingdale, NY, USA). Human recombinant AR (0.4 units) was purchased from Wako Chemicals (Osaka, Japan). Citric acid trisodium salt dehydrate, citric acid monohydrate, sodium carbonate anhydrous, sodium chloride, sodium phosphate dibasic anhydrous, and sodium phosphate monobasic dehydrate were purchased from SAMCHUN (Seoul, Korea). Peroxynitrite (ONOO^−), 3-[(3-cholamidopropyl)dimethylammonio]-1-propanesulfonate (CHAPS), and sodium azide were purchased from Bio-Rad Laboratories Calbiochem (San Diego, CA, USA), GENERAY BIOTECH (Shanghai, China), and JUNSEI (Chuoku, Tokyo, Japan), respectively.
(§3) The enzyme inhibition study was executed spectrophotometrically following the previous literature.

α-glucosidase [2] = experiment: α-Glucosidase enzyme kinetics (Lineweaver–Burk and Dixon plots); type: biochemical, Saccharomyces cerevisiae; conditions: substrate pNPG; for Ki: Dixon plots, read-out: α-Glucosidase Inhibition Constant (Ki); for α-Glucosidase Inhibition Mode: Lineweaver–Burk plots
Protocol: (§4) The two kinetic methods, Lineweaver–Burk plots and Dixon plots, were used to determine the inhibition mechanism. The α-glucosidase inhibition type was measured at various concentrations of substrate (pNPG, 0.625, 1.25, and 2.5 mM) and several concentrations of test compounds (0.8, 0.4, and 0.16 μM for compound 4; 2, 0.8, and 0.16 μM for 6; 3.17, 1.59, and 0.63 μM for 7; 1.54, 1.04, and 0.62 μM for 8) using Lineweaver–Burk double reciprocal plots. The PTP1B enzyme inhibition type was also measured at various concentrations of substrate (pNPP, 0.5, 1.0, 2.0, and 4.0 mM) and several concentrations of test compounds (4.0, 2.0, and 0.8 μM for compound 4; 2.0, 0.8, and 0.16 μM for 6; 15.87, 7.93, 3.17, and 0.63 μM for 7; 6.17, 3.08, 1.54 and 0.78 μM for 8) using Lineweaver–Burk double reciprocal plots. Dixon plots were used to determine the inhibition constant (Ki) of each compound by testing the effects of substrate and compounds against the α-glucosidase and PTP1B under the same conditions as described above.
(§5) Enzyme kinetic analysis was performed with different concentrations of substrate (pNPG and pNPP) and various concentrations of compounds to determine the type of inhibition on the compounds. Lineweaver–Burk and Dixon plots were used to determine the type of inhibition in enzyme kinetics. Each line of inhibitors intersected at the xy-side, indicating mixed-type inhibitors. On the other hand, the lines penetrated the same point on the x-intercept, representing non-competitive inhibitors in Lineweaver–Burk plots, and the Dixon plot was also used to calculate the Ki value for the enzyme inhibitor complex with the value shown on the x-axis indicating the -Ki value.

[3] = biological target: T1, human recombinant aldose reductase (HRAR) (Homo sapiens, UniProt P15121); experiment: HRAR inhibitory activity; type: biochemical
T1 construct: purchased Wako Chemicals (Osaka, Japan)
Excerpt: as §2
as §1, with “Quercetin was used as a positive control.” left out

PTP1B [4] = biological target: T2, PTP1B (Homo sapiens, UniProt P18031); experiment: PTP1B inhibitory activity; type: biochemical
T2 construct: purchased ENZO (Farmingdale, NY, USA)
T2 sequence (P18031 1-435): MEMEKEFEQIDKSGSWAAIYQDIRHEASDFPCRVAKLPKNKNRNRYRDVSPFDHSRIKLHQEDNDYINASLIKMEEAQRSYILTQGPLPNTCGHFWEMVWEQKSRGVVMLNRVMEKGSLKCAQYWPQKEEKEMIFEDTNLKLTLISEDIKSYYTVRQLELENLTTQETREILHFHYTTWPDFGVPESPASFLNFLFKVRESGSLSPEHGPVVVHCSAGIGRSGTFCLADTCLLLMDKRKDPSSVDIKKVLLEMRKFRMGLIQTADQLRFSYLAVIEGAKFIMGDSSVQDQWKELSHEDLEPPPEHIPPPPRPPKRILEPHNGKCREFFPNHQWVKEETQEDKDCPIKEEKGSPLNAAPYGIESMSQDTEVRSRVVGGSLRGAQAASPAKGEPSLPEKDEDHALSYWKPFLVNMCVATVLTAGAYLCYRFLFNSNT
Excerpt: as §2, §3

[5] = ONOO− scavenging activity (DHR123); conditions: mean ± SD, triplicate; read-out: Peroxynitirite IC50
Protocol: ONOO^− scavenging activity was measured using the method in previous literature involving measuring highly fluorescent rhodamine 123 that is converted from non-fluorescent DHR123 in the presence of ONOO^− [49].

PTP1B [6] = biological target: T2, PTP1B; experiment: PTP1B enzyme kinetics (Lineweaver–Burk and Dixon plots); type: biochemical; conditions: substrate pNPP; for Ki: Dixon plots, read-out: PTP1B Inhibition Constant (Ki); for PTP1B Inhibition Mode: Lineweaver–Burk plots
Protocol: as §4, §5

[7] = DPPH radical scavenging activity; conditions: Table 1; mean ± SD, triplicate
Protocol: (§6) The ABTS and DPPH radical scavenging activity of the extract and each fraction obtained from M. bombycis leaves were measured according to previous literature with modifications.

[8] = ABTS radical scavenging activity; conditions: Table 1; mean ± SD, triplicate
Protocol: as §6

[9] = one result of a single experiment, read-out: HRAR IC50
[10] = isolated compounds, mean ± SD, triplicate, read-out: PTP1B IC50

Row | Structure (SMILES) | IC50 (BSA-AGEs formation) [µM] | IC50 (HAS-AGEs formation) [µM] | IC50 (α-glucosidase [1]) [µM] | Ki (α-glucosidase [2]) [µM] | α-Glucosidase Inhibition Mode (α-glucosidase [2]) | IC50 [3, 9] [µM] | IC50 (PTP1B [4]; [10]) [µM] | IC50 [5] [µM] | Ki (PTP1B [6]) [µM] | PTP1B Inhibition Mode (PTP1B [6]) | other results
1 | Cl.N=C(N)NN [Aminoguanidine, aminoguanidine hydrochloride, reference compound] | 581 ± 28.7 | 504 ± 14.9 |  |  |  |  |  |  |  |  | BSA-AGEs IC50 (BSA-AGEs formation; subfractions of EtOAc fraction, Table S1): 36.73 ± 1.64 µg/mL
2 | Oc1cc(O)cc(-c2cc3cc4c(cc3o2)OC(c2cc(O)cc(O)c2)C(c2ccc(O)cc2O)O4)c1 (stereo not shown) [Austrafuran C (6), austrafuran C] | 13.7 ± 0.55 | 6.15 ± 0.25 | 1.01 ± 0.17 | 0.75 | Mixed | 26.8 | 1.69 ± 0.02 | 2.76 ± 0.25 | 1.45 | Mixed | PTP1B Inhibition Mode (PTP1B [6]; listed as 6): mixed-type inhibition
3 | O=C1O[C@H]([C@@H](O)CO)C(O)=C1O [L-ascorbic acid] |  |  |  |  |  |  |  |  |  |  | DPPH IC50 [7]: 2.82 ± 0.57 µg/mL; ABTS IC50 [8]: 3.38 ± 0.19 µg/mL
4 | Oc1cc(O)cc(-c2cc3c4c(c(O)cc3o2)OC(c2ccc(O)cc2O)C4c2cc(O)cc(O)c2)c1 (stereo not shown) [Macrourin B (4), macrourin B] | 9.44 ± 0.18 | 7.98 ± 0.62 | 0.44 ± 0.03 | 0.19 | Mixed | < 4 | 2.5 ± 0.17 | 2.61 ± 0.13 | 1.54 | Mixed | PTP1B Inhibition Mode (PTP1B [6]; listed as 4): mixed-type inhibition
5 | Oc1cc(O)cc(-c2cc3ccc(O)cc3o2)c1 [Moracin M (5), moracin M] | 2.4 ± 0.18 | 2.07 ± 0.03 | 6.11 ± 0.53 |  |  | 238 | 27.1 ± 4.2 | 0.92 ± 0.13 |  |  | 
6 | CC(C)=CCc1c(O)ccc(C23Oc4cc(O)ccc4C4CC(C)=CC(c5c(O)cc(-c6cc7ccc(O)cc7o6)cc5O2)C43)c1O (stereo not shown) [Mulberrofuran F (7), mulberrofuran F] |  |  | 1.22 ± 0.05 | 1.84 | Mixed | 337 | 10.5 ± 0.25 | 8.63 ± 0.02 | 8.9 | Mixed | PTP1B Inhibition Mode (PTP1B [6]; listed as 7): mixed-type inhibition
7 | Oc1cc(O)cc(/C=C/c2ccc(O)cc2O)c1 [Oxyresveratrol (3), oxyresveratrol] | 10.4 ± 0.39 | 5.38 ± 0.26 | 2.58 ± 0.23 |  |  |  |  | 6.24 ± 0.06 |  |  | IC50 [3]: 265 µM; IC50 (PTP1B [4]): 72.9 ± 1.87 µM
8 | Cc1c(C)c2c(c(C)c1O)CCC(C)(C(=O)O)O2 (stereo not shown) [Trolox, 6-hydroxy-2,5,7,8-tetramethylchloman-2-carboxylic acid] |  |  |  |  |  |  |  |  |  |  | ABTS IC50 [8]: 2.72 ± 0.13 µg/mL

Continued, in another order:

Row | IC50 (BSA-AGEs formation) [µM] | IC50 (HAS-AGEs formation) [µM] | IC50 (α-glucosidase [1]) [µM] | Ki (α-glucosidase [2]) [µM] | α-Glucosidase Inhibition Mode (α-glucosidase [2]) | IC50 [3, 9] [µM] | IC50 (PTP1B [4]; [10]) [µM] | IC50 [5] [µM] | Ki (PTP1B [6]) [µM] | PTP1B Inhibition Mode (PTP1B [6]) | Structure (SMILES) | other results
9 | 137.6 ± 0.33 | 113 ± 3.62 | 0.98 ± 0.03 | 1.71 | Mixed | 265 | 2.06 ± 0.39 | 3.03 ± 0.53 | 4.41 | Non-competitive | CC(C)=CCc1c(O)ccc(C(=O)[C@H]2[C@@H](c3c(O)cc(-c4cc5ccc(O)cc5o4)cc3O)C=C(C)C[C@@H]2c2ccc(O)cc2O)c1O [Chalcomoracin (8), chalcomoracin] | PTP1B Inhibition Mode (PTP1B [6]; listed as 8): non-competitive-type inhibition
10 |  |  |  |  |  |  |  | 0.62 ± 0.17 |  |  | CC(C)(S)[C@H](N)C(=O)O [L-Penicillamine, reference compound] | 
